Read-outs that look alike come from different tables or passages of the source.
Columns and labels:
mGlu1 = conditions: cited from earlier work
[1] = tested on: acute rodent models of Parkinson's disease; conditions: icv injection or systemically in a 50% DMSO vehicle; cited from earlier work
[2] = dosed systemically in a nontoxic vehicle; cited from earlier work
rat mGlu4 = rat mGlu4 (Rattus norvegicus, UniProt P31423); experiment: thallium flux in HEK cells expressing rat mGlu4 with GIRK channels; type: cell-based; conditions: maximal PAM response normalized to control PAM 1 (PHCCC); mean ± SEM
Sequence of rat mGlu4 (P31423 33-912): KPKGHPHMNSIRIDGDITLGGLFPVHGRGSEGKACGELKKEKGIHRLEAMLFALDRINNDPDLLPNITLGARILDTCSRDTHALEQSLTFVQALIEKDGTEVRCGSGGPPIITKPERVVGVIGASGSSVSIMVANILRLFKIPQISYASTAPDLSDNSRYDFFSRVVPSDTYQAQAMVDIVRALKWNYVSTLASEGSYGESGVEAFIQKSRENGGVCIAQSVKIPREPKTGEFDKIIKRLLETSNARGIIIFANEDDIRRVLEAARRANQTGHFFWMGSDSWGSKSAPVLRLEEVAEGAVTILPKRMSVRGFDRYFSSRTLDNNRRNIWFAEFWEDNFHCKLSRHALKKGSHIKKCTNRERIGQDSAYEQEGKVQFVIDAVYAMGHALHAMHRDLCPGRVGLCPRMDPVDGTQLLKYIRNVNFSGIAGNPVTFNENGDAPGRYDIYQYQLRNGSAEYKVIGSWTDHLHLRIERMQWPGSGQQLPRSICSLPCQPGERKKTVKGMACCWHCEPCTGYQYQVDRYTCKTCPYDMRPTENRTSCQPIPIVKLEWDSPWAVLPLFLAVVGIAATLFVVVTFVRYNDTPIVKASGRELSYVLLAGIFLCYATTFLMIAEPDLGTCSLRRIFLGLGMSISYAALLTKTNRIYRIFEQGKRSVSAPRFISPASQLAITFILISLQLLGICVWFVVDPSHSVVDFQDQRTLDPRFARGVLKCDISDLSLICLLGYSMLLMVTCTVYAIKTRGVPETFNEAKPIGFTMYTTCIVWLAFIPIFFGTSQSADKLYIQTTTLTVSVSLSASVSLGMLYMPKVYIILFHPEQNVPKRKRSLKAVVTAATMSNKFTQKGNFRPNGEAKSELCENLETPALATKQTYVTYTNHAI

microsomal stability = conditions: for Rat Clint: microsomal intrinsic clearance in vitro; for CLint scaled at 1 µM: rat, microsomes
CYP1A2 = biological target: T1, CYP1A2 (Homo sapiens, UniProt P05177); experiment: CYP450 enzyme inhibition, CYP1A2
T1 sequence (P05177 1-516): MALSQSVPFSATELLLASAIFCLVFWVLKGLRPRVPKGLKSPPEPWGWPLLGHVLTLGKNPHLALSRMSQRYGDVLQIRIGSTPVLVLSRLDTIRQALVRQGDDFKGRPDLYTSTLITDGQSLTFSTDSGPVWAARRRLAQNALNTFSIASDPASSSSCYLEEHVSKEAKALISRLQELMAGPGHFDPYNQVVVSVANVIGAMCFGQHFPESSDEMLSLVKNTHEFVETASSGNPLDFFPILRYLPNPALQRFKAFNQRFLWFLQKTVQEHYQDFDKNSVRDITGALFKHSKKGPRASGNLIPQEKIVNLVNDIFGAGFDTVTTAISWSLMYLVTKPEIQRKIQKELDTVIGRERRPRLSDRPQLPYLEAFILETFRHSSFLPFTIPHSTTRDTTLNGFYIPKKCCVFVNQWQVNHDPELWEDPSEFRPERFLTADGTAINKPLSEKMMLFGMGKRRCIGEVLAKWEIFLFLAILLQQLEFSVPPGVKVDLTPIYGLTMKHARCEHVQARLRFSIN

CYP2C9 = CYP2C9 (Homo sapiens, UniProt P11712); experiment: CYP450 enzyme inhibition, CYP2C9; conditions: P450 2C9, CYP2C9 inhibition
Sequence of CYP2C9 (P11712 whole entry): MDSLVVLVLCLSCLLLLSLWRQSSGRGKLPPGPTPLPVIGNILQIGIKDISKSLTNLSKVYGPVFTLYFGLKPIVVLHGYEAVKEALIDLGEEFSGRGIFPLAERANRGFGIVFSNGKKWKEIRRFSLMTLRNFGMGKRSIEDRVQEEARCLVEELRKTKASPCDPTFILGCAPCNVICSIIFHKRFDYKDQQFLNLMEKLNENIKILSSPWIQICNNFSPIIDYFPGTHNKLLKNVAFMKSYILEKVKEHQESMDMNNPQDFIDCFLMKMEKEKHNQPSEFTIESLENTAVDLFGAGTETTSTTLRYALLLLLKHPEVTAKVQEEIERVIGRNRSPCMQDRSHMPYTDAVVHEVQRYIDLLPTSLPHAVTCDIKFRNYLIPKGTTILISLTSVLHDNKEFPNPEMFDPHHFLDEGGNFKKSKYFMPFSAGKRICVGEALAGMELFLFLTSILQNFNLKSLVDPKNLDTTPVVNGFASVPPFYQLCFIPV

CYP3A4 = CYP3A4 (Homo sapiens, UniProt P08684); experiment: CYP450 enzyme inhibition, CYP3A4
Sequence of CYP3A4 (P08684 whole entry): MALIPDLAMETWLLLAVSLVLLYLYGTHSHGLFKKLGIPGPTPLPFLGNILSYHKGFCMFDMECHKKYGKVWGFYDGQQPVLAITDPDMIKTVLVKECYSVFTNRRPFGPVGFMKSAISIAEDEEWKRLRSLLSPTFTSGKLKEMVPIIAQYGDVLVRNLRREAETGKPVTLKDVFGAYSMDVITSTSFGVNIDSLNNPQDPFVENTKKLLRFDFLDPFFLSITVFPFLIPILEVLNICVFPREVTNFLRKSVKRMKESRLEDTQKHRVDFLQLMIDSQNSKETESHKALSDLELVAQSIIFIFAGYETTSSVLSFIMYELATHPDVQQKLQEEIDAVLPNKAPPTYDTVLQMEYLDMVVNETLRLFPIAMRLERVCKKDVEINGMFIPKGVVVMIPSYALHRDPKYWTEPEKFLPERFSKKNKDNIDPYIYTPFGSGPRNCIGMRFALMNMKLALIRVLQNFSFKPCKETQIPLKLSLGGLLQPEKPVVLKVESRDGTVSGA

CYP2D6 = CYP2D6 (Homo sapiens, UniProt P10635); experiment: CYP450 enzyme inhibition, CYP2D6; conditions: P450 2D6, CYP2D6 inhibition
Sequence of CYP2D6 (P10635 whole entry): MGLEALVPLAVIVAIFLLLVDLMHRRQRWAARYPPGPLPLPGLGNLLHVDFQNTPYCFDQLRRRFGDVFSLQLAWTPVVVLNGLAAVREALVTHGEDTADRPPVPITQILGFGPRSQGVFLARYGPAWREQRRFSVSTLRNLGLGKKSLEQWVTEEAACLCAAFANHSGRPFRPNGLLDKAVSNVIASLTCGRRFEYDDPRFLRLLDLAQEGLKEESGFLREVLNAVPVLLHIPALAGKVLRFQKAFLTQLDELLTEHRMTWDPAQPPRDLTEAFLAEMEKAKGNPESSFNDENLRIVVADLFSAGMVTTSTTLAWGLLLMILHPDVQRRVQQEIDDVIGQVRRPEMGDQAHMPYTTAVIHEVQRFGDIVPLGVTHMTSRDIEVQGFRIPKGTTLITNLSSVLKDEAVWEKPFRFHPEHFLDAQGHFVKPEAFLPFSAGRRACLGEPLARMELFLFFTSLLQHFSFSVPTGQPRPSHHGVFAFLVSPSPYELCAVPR

human mGlu4 = human mGlu4 (Homo sapiens, UniProt Q14833); experiment: cell-based
Sequence of human mGlu4 (Q14833 33-912): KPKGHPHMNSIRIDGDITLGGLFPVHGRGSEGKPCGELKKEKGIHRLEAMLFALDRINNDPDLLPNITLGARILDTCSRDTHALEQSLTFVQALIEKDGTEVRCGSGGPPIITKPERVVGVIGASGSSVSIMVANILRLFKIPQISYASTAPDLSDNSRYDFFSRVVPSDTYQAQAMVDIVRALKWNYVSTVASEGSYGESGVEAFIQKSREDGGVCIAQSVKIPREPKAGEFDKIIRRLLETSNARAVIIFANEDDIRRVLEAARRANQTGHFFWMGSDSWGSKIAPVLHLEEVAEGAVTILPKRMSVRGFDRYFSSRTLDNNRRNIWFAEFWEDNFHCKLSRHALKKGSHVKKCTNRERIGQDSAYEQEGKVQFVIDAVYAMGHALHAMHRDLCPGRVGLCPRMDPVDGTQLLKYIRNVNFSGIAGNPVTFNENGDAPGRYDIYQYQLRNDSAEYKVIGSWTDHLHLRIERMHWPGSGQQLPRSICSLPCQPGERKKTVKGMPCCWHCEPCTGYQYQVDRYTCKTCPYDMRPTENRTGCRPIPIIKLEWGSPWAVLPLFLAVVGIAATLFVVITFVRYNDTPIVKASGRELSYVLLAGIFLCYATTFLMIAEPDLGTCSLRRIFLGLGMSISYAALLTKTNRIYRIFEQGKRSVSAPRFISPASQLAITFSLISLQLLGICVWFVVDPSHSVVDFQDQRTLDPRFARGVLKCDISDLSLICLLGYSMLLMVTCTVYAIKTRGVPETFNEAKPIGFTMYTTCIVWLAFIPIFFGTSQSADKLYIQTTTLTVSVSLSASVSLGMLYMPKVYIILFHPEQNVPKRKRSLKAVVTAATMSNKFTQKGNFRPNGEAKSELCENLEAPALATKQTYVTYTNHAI

Question: For `O=C(Nc1ccccc1)[C@]12C[C@H]1/C(=N\O)c1ccccc1O2` (stereo in doubt) [Compound 1, N-phenyl-7-(hydroxyimino)cyclopropa[b]chromen-1a-carboxamide], which “activity at mGlu1” value (mGlu1) is on record?
Answer: The value was “partial antagonist activity”.

Question: What about the “activity in acute rodent models of Parkinson's disease” value [1] of the same compound?
Answer: The value was “active”.

Question: For `COc1cc(NC(=O)c2ccccn2)ccc1Cl` [Compound 3], which CNS penetration [2] is on record?
Answer: The CNS penetration was “CNS penetrant”.

Question: What does the source list for `COc1cc(NC(=O)c2nccs2)ccc1NC(=O)c1ccccc1Cl` [Compound 9e]?
Answer: GluMax (%Cmpd 1), rat mGlu4 (rat mGlu4): 133.9 %Cmpd 1; Rat Clint (microsomal stability): poor metabolic stability; CLint scaled at 1 µM (microsomal stability): 185 mL/min/kg

Question: With `COc1cc(NC(=O)c2ccccn2)ccc1NC(=O)c1ccccc1Cl` [Compound 9g, N-(4-(2-chlorobenzamido)-3-methoxyphenyl)picolinamide] as the compound, how does the “GluMax (%Cmpd 1), rat mGlu4” value (rat mGlu4) read?
Answer: Its value is 147.0 %Cmpd 1.

Question: And the IC50 (CYP1A2)?
Answer: Its IC50 is greater than 30 µM.

Question: What about the IC50 (CYP2C9) of the same compound?
Answer: Its IC50 is 14.3 µM.

Question: What about the IC50 (CYP3A4) of the same compound?
Answer: Its IC50 is greater than 30 µM.

Question: And the IC50 (CYP2D6)?
Answer: Its IC50 is 12.8 µM.

Question: And the CLint scaled at 1 µM (microsomal stability)?
Answer: The CLint scaled at 1 µM was 42.6 mL/min/kg.

Question: With `COc1cc(NC(=O)c2cnccn2)ccc1NC(=O)c1ccccc1Cl` [Compound 9h] as the compound, how does the EC50 (human mGlu4) read?
Answer: The EC50 was 0.0995 µM.

Question: For `O=C(Nc1ccc(NC(=O)c2ccccc2Cl)c(Cl)c1)c1ccccn1` [Compound 10a, N-(3-chloro-4-(2-chlorobenzamido)phenyl)picolinamide], which IC50 (CYP1A2) is on record?
Answer: The IC50 was greater than 30 µM.

Question: What about the IC50 (CYP2C9) of the same compound?
Answer: Its IC50 is 11.8 µM.

Question: And the IC50 (CYP3A4)?
Answer: The IC50 was greater than 30 µM.

Question: And the IC50 (CYP2D6)?
Answer: The IC50 was 13.1 µM.

Question: And the “Rat Clint” value (microsomal stability)?
Answer: The value was “acceptable”.

Question: And the CLint scaled at 1 µM (microsomal stability)?
Answer: The CLint scaled at 1 µM was 44.9 mL/min/kg.

Question: For `O=C(Nc1ccc(NC(=O)c2ccccc2Cl)c(C(F)(F)F)c1)c1ccccn1` [Compound 10b], which EC50 (human mGlu4) is on record?
Answer: The EC50 was 0.556 µM.

Question: For `O=C(Nc1ccc(NC(=O)c2ccccc2Cl)cc1)c1ccccn1` [Compound 10c], which EC50 (human mGlu4) is on record?
Answer: Its EC50 is 3.75 µM.

Question: For `O=C(Nc1ccc(NC(=O)c2ccccc2Cl)c(F)c1)c1ccccn1` [Compound 10d], which CLint scaled at 1 µM (microsomal stability) is on record?
Answer: The CLint scaled at 1 µM was 31.2 mL/min/kg.

Question: Which IC50 (CYP1A2) does the source give for `Cc1ccccc1C(=O)Nc1ccc(NC(=O)c2ccccn2)cc1Cl` [Compound 12a, N-(3-chloro-4-(2-methylbenzamido)phenyl)picolinamide] here?
Answer: The IC50 was greater than 30 µM.

Question: And the IC50 (CYP1A2; human)?
Answer: Its IC50 is greater than 10 µM.

Question: And the IC50 (CYP2C9)?
Answer: The IC50 was 14.1 µM.

Question: And the IC50 (CYP3A4)?
Answer: Its IC50 is greater than 30 µM.

Question: And the IC50 (CYP2D6)?
Answer: Its IC50 is 12 µM.

Question: And the “Rat Clint” value (microsomal stability)?
Answer: The value was “acceptable”.

Question: What about the CLint scaled at 1 µM (microsomal stability) of the same compound?
Answer: Its CLint scaled at 1 µM is 46.2 mL/min/kg.

Question: With `O=C(Nc1ccc(NC(=O)c2ccc(F)cc2Cl)c(Cl)c1)c1ccccn1` [Compound 12d] as the compound, how does the CLint scaled at 1 µM (microsomal stability) read?
Answer: Its CLint scaled at 1 µM is 54 mL/min/kg.

Question: For `COc1ccccc1C(=O)n1ccc2cc(NC(=O)c3ccccn3)ccc21` [Compound 15], which “Rat Clint” value (microsomal stability) is on record?
Answer: The value was “poor metabolic stability”.

Question: What about the CLint scaled at 1 µM (microsomal stability) of the same compound?
Answer: The CLint scaled at 1 µM was 605 mL/min/kg.

Reference: PMC3166797 (Journal of medicinal chemistry, 2011)
